In patent publication US6524785B1, “Perfusion and/or preservation and/or re-perfusion solution during organ transplant” (Centre National de la Recherche Scientifique, priority 1998, dated 2003):
Entries after “also recorded” stand apart in the source; their conditions may differ.

Experiments:
[1] = test system: transplanted heart; assay: Heterotopic transplant of rat heart, 3 hours of ischemia, function and energy metabolism after 1 hour and 24 hours of re-perfusion; format: in vivo; details: with versus without arginine, after 1 hour and after 24 hours of re-perfusion; first results
Procedure: FIG. 20 represents, within the framework of a protocol corresponding to 3 hours of ischemia with arrest and preservation in CRMBM solution, the ratios of different energy metabolites after 1 hour of re-perfusion (represented by the white histogram marked with black lines) and 24 hours of re-perfusion (represented by the histogram with white and black hatching).
The cardiac function, as represented by the derivative of developed pressure (dP/dtmax), is indicated by the black histogram without arginine, and by the histogram with white and black hatching with arginine.
A heterotopic transplant of rat heart model has been developed, working where the function and the metabolism can be simultaneously analysed. In this model the functional and metabolic recovery has thus been studied after 1 hour and 24 hours of re-perfusion after ischemia of 3 hours, protected by the invention solution.
The study has made it possible to analyse the long term recovery of the heart, comparing 1 hour and 24 hours of re-perfusion.

[2] = test system: isolated, perfused heart; assay: Isolated perfused rat heart: cardioplegic arrest, cold ischemia and re-perfusion, hemodynamic and metabolic evaluation (P-31 MRS, biochemistry); details: L-arginine added versus without
Procedure: The hearts are removed from male Sprague Dawley rats of 350 to 375 g and anaesthetised by intraperitoneal injection of pentobarbital. The hearts are then perfused following the isovolumic contracting heart model. In this model, the heart is perfused with Krebs-Henseleit buffer at 37° C., without phosphate, in a retrograde manner via the aorta, at a constant pressure of 100 mmHg An incompressible balloon, placed in the left ventricle makes the contraction isovolumic. This model makes it possible to evaluate the cardiac function, by the developed pressure and to measure the compliance by measurement of the diastolic pressure. […]
The signals observed in the RMN spectrum of the P-31 are those of inorganic phosphate, phosphocreatine and the 3 phosphorous molecules of ATP. […] The areas and the positions of resonance are determined by using the NMR1 program (New Methods Research Syracuse, N.Y.) on an IBM Risc System 6000 operating system.
The areas measured are corrected by taking into consideration the saturation factors determined by comparing the acquired spectrums to completely relaxed spectrums. The areas of different metabolites can thus be converted into concentrations by referring to the ATPβ area, taking into consideration a cytosolic concentration of 11.6 mM for the ATP (determined by high pressure liquid chromatography). […]

SMILES: N=C(N)NCCC[C@H](N)C(=O)O [L-arginine]
- functional recovery of the heart, effect of L-arginine [1]: beneficial effect
- content in adenylic nucleotides ([2]; 8 hours of ischemia and re-perfusion, HPLC): without however affecting
- pool of amino acids during re-perfusion ([2]; protocol 3: 8 hours of ischemia, HPLC in frozen hearts): greater pool of amino acids; also recorded: limits the depletion
